Laboratory results: US20150183737A1, “COMPOSITIONS AND METHODS FOR SUBSTRATE-SELECTIVE INHIBITION OF ENDOCANNABINOID OXYGENATION” (Vanderbilt University, priority 2012, published 2015)
Entries after “also recorded” stand apart in the source; their conditions may differ. Read-outs that look alike come from different tables or passages of the source. Each block holds one compound with its values, some of them ahead of it.

How the values were obtained:
[1] = molecular target: T1, COX-2 in RAW 264.7 macrophages (Mus musculus, UniProt Q05769); experiment: RAW cells assay: oxygenation of 2-AG and AA; type: cell-based
T1 construct: endogenous in cells; host or cells: RAW 264.7 macrophages stimulated with LPS (and GM-CSF / interferon γ where described)
T1 sequence (Q05769 18-604): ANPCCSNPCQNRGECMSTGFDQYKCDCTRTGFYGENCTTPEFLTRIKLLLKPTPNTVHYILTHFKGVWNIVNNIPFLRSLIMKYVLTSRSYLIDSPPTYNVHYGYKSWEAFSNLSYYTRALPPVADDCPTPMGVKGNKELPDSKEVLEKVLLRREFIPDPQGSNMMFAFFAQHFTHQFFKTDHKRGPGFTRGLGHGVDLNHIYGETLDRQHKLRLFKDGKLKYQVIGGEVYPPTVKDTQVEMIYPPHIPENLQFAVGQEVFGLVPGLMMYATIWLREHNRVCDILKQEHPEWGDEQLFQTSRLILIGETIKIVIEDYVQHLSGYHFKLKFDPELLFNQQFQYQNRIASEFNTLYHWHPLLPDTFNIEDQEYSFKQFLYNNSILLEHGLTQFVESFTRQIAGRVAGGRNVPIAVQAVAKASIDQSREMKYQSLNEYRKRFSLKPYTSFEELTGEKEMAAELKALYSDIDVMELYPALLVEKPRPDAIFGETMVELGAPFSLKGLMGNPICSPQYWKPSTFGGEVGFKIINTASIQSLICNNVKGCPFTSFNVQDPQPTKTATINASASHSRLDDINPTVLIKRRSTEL
Experimental: Two hours after stimulation, varying doses of inhibitor were added to the cell media and 6 hr after stimulation the media were collected and analyzed by LC-MS-MS for prostaglandin levels.
The cells were then stimulated overnight with 20 ng/ml of granulocyte-macrophage colony-stimulating factor. The media was replaced in the morning with DMEM with GLUTAMAX® and the cells were stimulated with 100 ng/ml lipopolysaccharide and 20 units/ml interferon γ. Two hours after stimulation varying doses of inhibitor were added to the cell media and 6 hours after stimulation the media was collected and extracted in acidified ethyl acetate spiked with deuterated internal standards. The organic layer was dried down under a stream of nitrogen gas and reconstituted in 1:1 water:methanol and analyzed by LC-MS/MS for prostaglandin levels using the same instrumentation, column, solvents and conditions as described for the in vitro assay above.

[2] = molecular target: T2, purified murine COX-2 (Mus musculus, UniProt Q05769); experiment: Inhibition of mCOX-2 dependent oxygenation of 2-AG and AA by profens in vitro; type: biochemical; set-up: made in house; host or cells: insect cells; conditions: achiral profens
T2 sequence (Q05769 18-604): T1 sequence (Q05769 18-604)
Experimental: Desired concentrations of inhibitor in DMSO or blank (DMSO) were incubated with mCOX-2 (40 nM) for 3 minutes in 100 mM Tris-HCl with 0.5 mM phenol, pH 8.0 at 37° C. After pre-incubation of enzyme and inhibitor, 5 μM of AA or 2-AG was added at 37° C. Thirty seconds later, the reaction was quenched with 200 μL of ice-cold ethyl acetate containing 0.5% acetic acid (v/v) and 1 μM PGE2-d4 and PGE2-G-d5. The solution was then vortexed and the aqueous layer frozen. The organic layer was removed and evaporated to near-dryness under nitrogen. The samples were reconstituted in 1:1 MeOH:H2O and chromatographed using a LUNA® C18(2) column (50 2 mm, 3 μm; Phenomenex, Torrance, Calif., United States of America). […] Analyte peak areas were normalized to the appropriate internal standard to determine the amount of product formation, and inhibition was determined by normalization to a DMSO control.

[3] = molecular target: T3, mCOX-2 (Mus musculus, UniProt Q05769); experiment: Inhibition of COX-2-mediated oxygenation of arachidonic acid and 2-AG, purified enzyme, 15 min preincubation; type: biochemical, murine
T3 construct: made in house; host or cells: insect cells
T3 sequence (Q05769 18-604): T1 sequence (Q05769 18-604)
Experimental: Various concentrations of inhibitor (or DMSO) were incubated with mCOX-2 (200 nM) for 5-15 minutes in 100 mM Tris-HCl with 0.5 mM phenol, pH 8.0. For mutant mCOX-2 experiments, the enzyme concentration was adjusted such that the turnover was approximately equal to wild type enzyme. The preincubation time was determined on the basis of previous reports regarding the time required to achieve maximal inhibition, and preincubation was performed at 25° C. except for the final 3 minutes, which took place at 37° C. […] After the preincubation of enzyme and inhibitor, arachidonic acid or 2-AG was added for 30 seconds at 37° C. The reaction was quenched with ice-cold ethyl acetate containing 0.5% (v/v) acetic acid and 1 μM PGE2-d4 and PGE2-G-d5. The solution was then vigorously mixed and cooled on ice. The organic layer was separated and evaporated to near-dryness under nitrogen. […] Peak areas for analytes were normalized to the appropriate internal standard to determine the amount of product formation, and the amount of inhibition was determined by normalization to a DMSO control.

[4] = molecular target: T4, COX-2 (Mus musculus, UniProt Q05769); experiment: Inhibition of COX-2 oxygenation by acetaminophen and its metabolites; type: biochemical; conditions: for Inhibition of AA oxygenation: up to 1 mM
T4 sequence (Q05769 18-604): T1 sequence (Q05769 18-604)

[5] = system: brain eCB, AA and PG levels; experiment: Brain eCB, NAE, MAG, AA and PG levels after i.p. injection; type: in vivo, mice; conditions: for Brain AA levels / Brain PG levels: 10 mg/kg i.p. (Compound A: any dose tested); for Brain AEA levels: 10 mg/kg i.p.
Experimental: 5-7 week old male ICR mice were used for all experiments with the exception of knockout animals (Harlan, Indianapolis, Ind., United States of America). Mice were housed 5 per […]. All behavioral tests were conducted during the light cycle between 0900 and 1700. KO and WT littermate controls for FAAH^(−/−) and COX-2^(−/−) mice were derived from heterozygote breeding pairs, bred and genotyped as described in Uddin et al., 2011. CB1^(−/−) mice were bred from homozygote breeding pairs and genotyped as described in Pan et al., 2008. Mice were group-housed on a 12:12 light-dark cycle (lights on at 06:00), with food and water available ad libitum. All animal studies were approved by the Vanderbilt Institutional Animal Care and Use Committee and conducted in accordance with the Guide for the Care and Use of Laboratory Animals of the United States National Institutes of Health.
(§1) Mice were sacrificed by cervical dislocation and decapitation. The brain, lungs, liver, stomach, small intestines, and kidneys were then rapidly removed and frozen on a metal block in dry ice. The tissue was then placed in a tube and stored at −80° C. until extraction, usually one day after harvesting. For PG and eCB analysis, lipid extraction from tissue was carried out as described in Patel et al., 2009.
(§2) Analytes were quantified using LC-MS/MS on a Quantum triple-quadrupole mass spectrometer in positive-ion mode using selected reaction monitoring. Detection of eicosanoids was performed as described in Kingsley & Marnett, 2007. For fatty acid analysis the mobile phases used were 80 μM AgOAc with 0.1% (v/v) acetic acid in H2O (solvent A) and 120 μM AgOAc with 0.1% (v/v) acetic acid in MeOH (solvent B). The analytes were eluted using a gradient from 20% A to 99% B over 5 minutes. The transitions used were m/z 300→282 for PEA, m/z 328→310 for SEA, m/z 434→416 for OEA, m/z 456→438 for AEA, m/z 464→446 for AEA-d8, m/z 331→257 for 2-PG, m/z 359→285 for 2-SG, m/z 463→389 for 2-OG, m/z 485→411 for 2-AG, m/z 493→419 for 2-AG-d8, m/z 519→409 for AA, and m/z 527→417 for AA-d8. Peak areas for the analytes were normalized to the appropriate internal standard and then normalized to tissue mass for in vivo samples.

[6] = system: ICR mice; experiment: Novel open field test; type: in vivo; conditions: 10 mg/kg
Experimental: Animals were tested for open-field activity in a novel environment one hour after i.p. injection of compound as described in Sumislawski et al., 2011. Briefly, one-hour sessions were performed using automated experimental chambers (27.9 27.9 cm; MEDOFA-510; MED Associates, Ga., Vermont, United States of America) under constant illumination within a sound-attenuated room. Analysis of open field activity was performed using Activity Monitor v5.10 (MED Associates).

[7] = system: peripheral tissue eCB, NAE, MAG and PG levels; experiment: Peripheral tissue NAE, MAG and PG levels after i.p. injection; type: in vivo, mice; conditions: stomach, heart, kidney, lung, intestine
Experimental: as §1
as §2, with “samples. […]” for “samples.”

[8] = molecular target: T5, wild type mCOX-2 (Mus musculus, UniProt Q05769); experiment: biochemical
T5 sequence (Q05769 18-604): T1 sequence (Q05769 18-604)

[9] = read-out: IC50, COX-2 oxygenation of 2-AG, 50 μM 2-AG, 15 min preincubation, LC-MS/MS
[10] = 2-AG IC50, 2-AG oxygenation by COX-2
[11] = AA IC50, AA oxygenation by COX-2

Compound: CC(=O)Nc1ccc(O)cc1 [APAP, acetaminophen]
Inhibition of AA oxygenation [4]: No inhibition

Compound: COc1ccc(-n2nc(C(F)(F)F)cc2-c2ccc(Cl)cc2)cc1 [SC-560, reference compound]
Brain AA levels ([5]; 2 hours): significantly increased
Brain PG levels ([5]; 2 hours): profoundly decreased
Brain AEA levels ([5]; 2 hours, vs vehicle): significantly increased
Center distance travelled and center time in the open-field arena [6]: did not have any significant behavioral effect; also recorded: no significant behavioral effects

Compound: COc1ccc2c(c1)c(CC(=O)O)c(C)n2C(=O)c1ccc(Cl)cc1 [indomethacin, reference compound]
Brain AA levels ([5]; 2 hours): significantly increased
Brain PG levels ([5]; 2 hours): profoundly decreased
Brain 2-AG levels ([5]; 10 mg/kg i.p. (highest dose), 2 hours, vs vehicle): significantly increased
Brain AEA levels ([5]; 2 hours, vs vehicle): significantly increased
Brain AEA levels (Example 8) ([5]; 2 hours after i.p administration, dose not stated): increased
Brain or lung PG levels (Example 8) ([5]; dose not stated): profoundly decreased
Center distance travelled and center time in the open-field arena [6]: significantly increased
Center distance travelled and center time in the open-field arena ([6]; listed as Indomethacin): increased
PG levels in peripheral tissues [7]: robustly decreased

Compound: Cc1ccc(Nc2c(F)cccc2Cl)c(CC(=O)O)c1 [Lumiracoxib]
IC50, COX-2 oxygenation of arachidonic acid ([3]; 50 μM AA, 15 min preincubation, LC-MS/MS): No inhibition
IC50 [3, 9]: 40 nM

Compound: COc1ccc2c(c1)c(CC(=O)O)cn2C(=O)c1ccc(Cl)cc1 [DM-INDO]
IC50 ([3]; 50 μM AA, 15 min preincubation, LC-MS/MS, read-out: IC50, COX-2 oxygenation of arachidonic acid): > 25000 nM
IC50 [3, 9]: 250 nM

Compound: COc1ccc2c(c1)c(CC(N)=O)c(C)n2C(=O)c1ccc(Cl)cc1 [B]
IC50 [8, 10]: 590 nM
IC50 [8, 11]: 610 nM

Compound: CS(=O)(=O)Nc1ccc([N+](=O)[O-])cc1OC1CCCCC1 [NS-398, reference compound]
Brain AA levels ([5]; 2 hours): significantly increased
Brain PG levels ([5]; 2 hours): profoundly decreased
Brain AEA levels ([5]; 2 hours, vs vehicle): significantly increased
Center distance travelled and center time in the open-field arena [6]: significantly increased

Compound: Nc1ccc(O)cc1 [4-aminophenol]
IC50 [4]: 71000 nM
Inhibition of AA oxygenation [4]: No inhibition

Compound: CCN(CC)C(=O)Cc1c(C)n(C(=O)c2ccc(Cl)cc2)c2ccc(OC)cc12 [E]
IC50 [8, 10]: 583 nM
IC50 [8, 11]: 23000 nM

Compound: COc1ccc2c(c1)c(CC(=O)N(C)CCc1ccccc1)c(C)n2C(=O)c1ccc(Cl)cc1 [G]
IC50 [8, 10]: 715 nM
IC50 [8, 11]: > 25000 nM

Other lines, results leading:

inhibition at 25 µM ([1]; RAW264.7, at 25 μM compound): 40%
IC50 ([1]; conversion of 2-AG to PGE2-G/PGD2-G): 5200 nM
inhibition at 10 µM ([2]; at 10 μM inhibitor, AA 5 μM, read-out: AA % Inhibition): 5%
IC50 ([2]; murine COX-2 40 nM, 3 min preincubation, 2-AG 5 μM, 37° C., 30 s, mean ± SD, read-out: 2-AG IC50): 1100 nM
Compound: CC(C)(C(=O)O)c1ccc(-c2ccccc2)c(F)c1 [Compound 4a, 2-(2-fluoro-[1,1′-biphenyl]-4-yl)-2-methylpropanoic acid]

IC50 ([3]; read-out: IC50, COX-2 oxygenation of 2-AG): 85 nM
IC50 ([3]; read-out: IC50, COX-2 oxygenation of arachidonic acid): 520 nM
Compound: CS(=O)(=O)c1ccc(C2=C(c3ccccc3)C(=O)OC2)cc1 [Rofecoxib]

IC50 [8, 10]: 424 nM
IC50 [8, 11]: 19000 nM
Compound: COc1ccc2c(c1)c(CC(=O)N(C)C)c(C)n2C(=O)c1ccc(Cl)cc1 [D]

IC50 [8, 10]: 237 nM
IC50 [8, 11]: 262 nM
Compound: COc1ccc2c(c1)c(CC(=O)NCCO)c(C)n2C(=O)c1ccc(Cl)cc1 [C]

IC50 [8, 10]: 653 nM
IC50 [8, 11]: > 25000 nM
Compound: COc1ccc2c(c1)c(CC(=O)N1CCCCC1)c(C)n2C(=O)c1ccc(Cl)cc1 [F]
